We go through 2 molecules from US8648116B2, “Derivatives of N-(arylamino) sulfonamides including polymorphs as inhibitors of MEK as well as compositions, methods of use and methods for preparing the same” (Ardea Biosciences, Inc., priority 2005, dated 2014).

For series [1], the system named is gastric carcinoma Hs746t cells. Put plainly: Cell proliferation assay (CellTiterGlo, 48 hours). It counts as cell-based, human. The settings on record: 48 hours treatment. Here is the method:
Human gastric carcinoma Hs746t cells were obtained from ATCC (Manassas, Va.). […] For cell proliferation experiments, cells were plated in white 96-well plates with clear bases at 3000 cells/100 μl/well.
A general note: In ATP-based viability assays light output follows the ATP content of the culture.

The nature of series [2]: Pharmacokinetics in cancer patients following multiple doses. The settings on record: 6 mg.
Another series relates to MDA-MB231 cells. In words: Anchorage-independent growth inhibition (MTS, 7 days). It counts as cell-based, human.
For series [3], the system named is gastric adenocarcinoma AGS cells. In words: Cell proliferation assay (CellTiterGlo, 3 days and 6 days). It counts as cell-based, human. The settings on record: 3 days and 6 days exposure. Here is the method:
Human gastric adenocarcinoma AGS cells were obtained from ATCC (Manassas, Va.). […] For cell proliferation experiments, cells were plated in white 96-well plates with clear bases at 3000 cells/100 μl/well. […] The ATP level for each dose was determined in triplicate using independent wells.

The test system of series [4] is carrageenan-induced hind paw edema. Put plainly: Carrageenan-induced paw edema (CPE). It counts as in vivo, Sprague-Dawley rats. The settings on record: 6, 20 & 60 mg/kg orally 2 hr before carrageenan; all dose groups. Here is the method: Compound A (6, 20 & 60 mg/kg) or indomethacin (3 mg/kg) were administered orally 2 hr prior to injection of 1% suspension of carrageenan into the right hind foot pad of male Sprague-Dawley rats (N-6 per treatment group). The hind paw edema was measured 3 hr later by assessing paw volume by plethysmography. Reduction of hind paw edema by 30% or greater indicates significant acute anti-inflammatory activity. Indomethacin (Indo) was used as a positive control drug.
Background: In the carrageenan paw model, swelling and tenderness develop within hours.

A short description of series [5]: Pharmacokinetic parameters in Balb/c mice (Example 94D). It counts as in vivo. Here is the method:
Pharmacokinetic parameters were obtained from dosing Balb/c mice with 25 mg/kg Compound A and extrapolating values for the lower dose groups and shown in the table below.

Series [6] has as its system Colo205 colon cancer tumors. Put plainly: Anti-tumor xenograft activity, TGI and TGD (Example 94). It counts as in vivo, nu/nu mice. As for the experimental part: (§1) Human tumors were implanted in nu/nu mice. Compound A was administered orally for 14 days once tumors were approximately 100 mm^3 in size. Tumor growth inhibition (TGI) was determined after 14 days of treatment as the reduction in the size of tumors in treated groups versus vehicle controls. The time to endpoint (TTE) was calculated as the time for the tumor to reach the specified endpoint volume or the last day of the study, whichever came first. Treatment outcome was determined from percent tumor growth delay (% TGD), defined as the percent increase in median TTE of treated versus vehicle-treated control mice. Animals were also monitored for regression responses. Levels of pERK in tumors and brain were determined by Western blots and correlated with plasma levels of Compound A for the pharmacodynamic/pharmacokinetic study. A number of tumor models were evaluated with different doses and dosing regimens. […] The effect of different dosing regimens was evaluated in A375 xenografts.
(§2) Female nu/nu mice were implanted with A375 Melanoma, Colo205 Colon Tumor, A431 Epidermoid Tumor or HT-29 Colon Tumor cells, which were allowed to grow to 100-200 mm^3. Compound A or vehicle was administered orally (25 mg/kg, 50 mg/kg or 100 mg/kg), once a day, for 14 days.
(§3) Tumor Growth Inhibition for the groups treated with 25 mg/kg Compound A were calculated for the indicated tumor xenografts. Tumor Growth Inhibition was measured at the end of once daily dosing for 14 days and calculated according to: […]

In the next series the test system is A431 epidermoid tumors. Described as above. It counts as in vivo, nu/nu mice. Here is the method: as §1, §2, §3
A short description of series [7]: Concentration-time profiles after a single dose of capsules. The settings on record: human, in vivo, oral, capsules of example 95A. On the set-up: species or system human cancer patients.
The test system of the next series is HT29 colon cancer tumors. In words: Anti-tumor xenograft activity, TGI (Example 94). It counts as in vivo, nu/nu mice. The settings on record: 25 mg/kg QD oral, 14 days. Here is the method:
as §1
Female nu/nu mice were implanted with A375 Melanoma, Colo205 Colon Tumor, A431 Epidermoid Tumor or HT-29 Colon Tumor cells, which were allowed to grow to 100-200 mm^3. […]
as §3

Another series relates to A375 melanoma tumors. Put plainly: Anti-tumor xenograft activity, TGI and TGD (Example 94). It counts as in vivo, nu/nu mice. Here is the method:
as §1, §2
Tumor Growth Inhibition for the groups treated with 25 mg/kg Compound A were calculated for the indicated tumor xenografts. Tumor Growth Inhibition was measured at the end of once daily dosing for 14 days and calculated according to:
Female nu/nu mice were implanted with A375 tumor cells, which were allowed to grow to 100-200 mm^3. Compound. […] Tumor Growth Inhibition was measured at the end of once daily dosing for 14 days and calculated according to: […]

For the next series, the system named is pERK in brain. Put plainly: MEK inhibition (pERK, Western blot) against plasma concentration, brain. It counts as in vivo, nu/nu mice. Here is the method: as §1
Female nu/nu mice implanted with Colo205 tumor cells were given a single dose of vehicle or Compound A at 2.5, 5, 10, or 25 mg/kg. Compound levels were determined in plasma samples and pERK levels were determined in tumor and brain samples collected at 2, 6, 12, and 24 hr post-dose. […]

[8] abbreviates: 2.5 mg/kg, extrapolated from 25 mg/kg in Balb/c mice.
[9] abbreviates: 5 mg/kg, extrapolated from 25 mg/kg in Balb/c mice.
The mark [10] stands for this setting: 10 mg/kg, extrapolated from 25 mg/kg in Balb/c mice.

Marks after values point to notes of the source that are not given here. A value given as a limit tells only on which side of the number the result lay.

In the case of `COc1cc(F)c(F)c(Nc2ccc(I)cc2F)c1NS(=O)(=O)C1(C[C@H](O)CO)CC1`, the “proliferation of Hs746t cells” value in series [1] is reported as “inhibits the proliferation”. In addition, the “Rac AUCτ (accumulation index)” value in [2] is on record as 2.07. For the same molecule, the GI50 (as a rule, the concentration giving 50% growth inhibition) in the series with MDA-MB231 cells (MDA-MB231, anchorage independent) is 0.081 µM. In addition, the “anchorage independent growth (FIG. 12C)” value in the series on MDA-MB231 cells (MDA-MB231 cells) was “inhibition of MDA-M8231 cells”. In [3], the “proliferation of AGS cell line” value is given as “inhibits the proliferation”.

On to `COc1cc(F)c(F)c(Nc2ccc(I)cc2F)c1NS(=O)(=O)C1(C[C@H](O)CO)CC1` [Compound A], for which the “hind paw edema (paw volume)” value in series [4] is recorded as “significant anti-inflammatory activity”. Besides, the AUC (in general, the area under the concentration-time curve, a measure of exposure) is 5500 ng·h/mL in series [5] (setting [8]); 11000 ng·h/mL in series [5] (setting [9]); 22000 ng·h/mL in series [5] (setting [10]); 55000 ng·h/mL in [5] (mouse, in vivo, oral, 25 mg/kg, Balb/c mice, read-out: AUC); 2.07 ng·h/mL in series [7] (2 mg dose, Day 35); 5.12 ng·h/mL in series [7] (4 mg dose, Day 35). For the same molecule, the area under the curve (AUC) was 14.3 ng·h/mL in [7] (10 mg dose, Day 35) and 29.5 ng·h/mL in [7] (20 mg dose, Day 35). In addition, the Cmax (commonly the highest concentration seen after dosing) in series [5] (setting [8]) is 990 ng/mL; in series [5] (setting [9]) it was 1970 ng/mL; in series [5] (setting [10]) it was 3940 ng/mL; in series [5] (mouse, in vivo, oral, 25 mg/kg, Balb/c mice, read-out: Cmax), 9850 ng/mL; in series [7] (2 mg, 2 mg dose, Day 35) it was 0.202 ng/mL; in series [7] (4 mg, 4 mg dose, Day 35) it was 0.544 ng/mL. Further, the maximum concentration (Cmax) in series [7] (10 mg, 10 mg dose, Day 35) stood at 1.57 ng/mL; in series [7] (20 mg, 20 mg dose, Day 35), 3.28 ng/mL. Further, the Cmin is 3 ng/mL in series [5] (setting [8]); 6 ng/mL in series [5] (setting [9]); 12 ng/mL in series [5] (setting [10]); 29 ng/mL in [5] (25 mg/kg, Balb/c mice). Besides, the “% TGI” value is 70-123** % in series [6] (Colo205 Colon xenograft, 25 mg/kg QD oral, 14 days, range from 2 separate studies); 67% in the series on A431 epidermoid tumors (A431 Epidermoid xenograft, 25 mg/kg QD oral, 14 days); 56% with HT29 colon cancer tumors; 52-72** % with A375 melanoma tumors (A375 Melanoma xenograft, 25 mg/kg QD oral, 14 days, range from 2 separate studies); 79.5% in the series on A375 melanoma tumors (A375 xenografts, 12.5 mg/kg BID); 110.1% in the series with A375 melanoma tumors (A375 xenografts, 25 mg/kg BID). The “% TGI” value in the series with A375 melanoma tumors (A375 xenografts, 25 mg/kg QD) amounted to 51.7%; in the series on A375 melanoma tumors (A375 xenografts, 50 mg/kg QD), 69.9%. Further, the “% TGD, significance” value in series [6] (Colo205 colon cancer tumors, 25 or 50 mg/kg once daily (QD)) is on record as “statistically significant”; with A431 epidermoid tumors (A431 epidermoid tumors, 25 or 50 mg/kg once daily (QD)), “statistically significant”; in the series on A375 melanoma tumors (A375 melanoma tumors, 25 or 50 mg/kg once daily (QD)), “statistically significant”. For the same molecule, the Tmax (commonly the time from dosing to the highest level) in series [7] (2 mg, 2 mg dose, Day 35) came out at 2 h; in series [7] (4 mg, 4 mg dose, Day 1), 1.5 h; in series [7] (4 mg, 4 mg dose, Day 35) it was 1 h. For the same molecule, the “% TGD” value in the series on A375 melanoma tumors (A375 xenografts, 25 mg/kg QD) worked out at 143%; in the series with A375 melanoma tumors (A375 xenografts, 50 mg/kg QD) it was 233%; in the series on A375 melanoma tumors (A375 xenografts, 100 mg/kg orally once every two days), 91%. For the same molecule, in the series with pERK in brain (Colo205 xenograft mice, pharmacodynamic/pharmacokinetic study), the “pERK formation in brain” value was “minimal inhibition”. For the same molecule, in the series with pERK in brain (Mus musculus, plasma concentration, Colo205-bearing nu/nu mice, single dose 2.5-25 mg/kg), the EC50 – broadly, the midpoint of the concentration-response curve – was more than 5 µM.
